The results in this text go back to US9493464B2, “Wee1 degradation inhibitors” (The Scripps Research Institute, priority 2012, dated 2016).

One assay concerns endogenous Wee1. In words: Western blot of endogenous Wee1. The settings on record: result in words. It counts as cell-based. The method, then:
The percentage of signal relative to the proteasome inhibitor MG132 is shown. […] A Western blot is shown of endogenous Wee1 or Skp1 (loading control) of HeLa cells incubated with 5 μM of indicated compounds for 24 hours. […] The 0 time point was set to 100%. […] The extent of degradation was measured as in FIG. D.

In a further assay the target is T1, CK1ε (Homo sapiens, UniProt P49674).
T1 construct: Reaction Biology Corporation (contract assay)
T1 sequence (P49674 whole entry): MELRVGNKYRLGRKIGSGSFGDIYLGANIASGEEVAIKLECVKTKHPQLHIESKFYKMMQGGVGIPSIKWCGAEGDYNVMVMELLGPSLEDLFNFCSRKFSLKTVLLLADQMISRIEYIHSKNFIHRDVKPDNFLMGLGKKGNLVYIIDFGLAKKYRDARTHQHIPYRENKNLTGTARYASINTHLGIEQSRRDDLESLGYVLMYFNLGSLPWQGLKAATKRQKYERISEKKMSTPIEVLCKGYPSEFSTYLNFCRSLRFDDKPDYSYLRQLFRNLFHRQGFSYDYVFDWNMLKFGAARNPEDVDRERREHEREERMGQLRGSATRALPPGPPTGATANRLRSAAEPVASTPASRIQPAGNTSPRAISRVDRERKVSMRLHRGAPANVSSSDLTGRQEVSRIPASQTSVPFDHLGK
In words: In vitro kinase assay, CK1ε (Reaction Biology Corporation). Particulars: 10 μM ATP. It counts as biochemical. The method, then: Compounds were tested in 10-dose IC50 mode with 3-fold serial dilution starting at 50 μM. […] Reactions were carried out at 10 μM ATP. Average and standard deviations of reactions carried out in triplicate are shown.
In vitro kinase assay to detect CK1 or FLT3 activity: CK1 and FLT3 assays as well as complete kinase profile of 296 kinases was performed by Reaction Biology Corporation. For FLT3 20 μM final Abltide was used, sequence: [[…]]. For CK1 (all isoforms) 20 μM CK1 tide was used, sequence: [KRRRAL[pS]VASLPGL] in a standard kinase assay with ^32P-ATP and purified kinase. Incorporation of ^32P-ATP into the peptide was measured after a filter-binding assay. In-house CK1d inhibition assays were performed using a standard homogenous time-resolved fluorescence resonance energy transfer (TR-FRET) format in 50 mM Hepes, pH 7.0, 2.5 mM MgCl2, 0.1 mg/ml bovine serum albumin, 1 mM DL-dithiothreitol, 0.01% Triton X-100 (all from Sigma-Aldrich). […] Assays were performed in the presence of 2 μL of compound at different (measured) concentrations, and reactions were stopped by adding 10 μL of 4 nM Eu-anti-p-Topo-IIa (PerkinElmer) in Lance Detection Buffer (Perkin Elmer). Upon excitation of the Eu-labeled antibody, energy is transferred to the acceptor dye resulting in the emission of detected light at 665 nm.

Structures are written as SMILES.

In the case of `c1ccc2[nH]c(CNc3nc(N4CCOCC4)nc4c3ncn4-c3ccsc3)nc2c1` [SR-653234], the “steady-state levels of endogenous Wee1” value with endogenous Wee1 is on record as “increased the steady-state levels of endogenous Wee1”. On CK1ε, this compound displayed an IC50 of 100 nM.

A word on the IC50: it is the point on the concentration scale where inhibition reaches its midpoint. A higher IC50 goes with lower potency.
